Results on 28 compounds are retold here after patent publication US20240368122A1, “JAK2 INHIBITORS AND METHODS OF USE THEREOF” (RELAY THERAPEUTICS, INC., priority 2021, published 2024).

Molecules are shown by their SMILES. Read-outs that look alike come from different tables or passages of the source.

The test system of test [1] is TF1 JAK2 V617F STAT3 reporter. The experiment in a line: Cellular TF1 STAT3 assay (luciferase reporter), JAK2 V617F. As to conditions: read-out: Cell PD-TF1 JAK2 V617F STAT3 (IC50). The format is cell-based. In a few lines:
(§1)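 TF1 erythroleukemia cells expressing V617F JAK2 with a STAT3 or STAT5 luciferase reporter were seeded at 10,000 cells/well onto compound (10-point, 1:3 dilutions; 10 mM top stock at 1000×) and incubated 18-20 h at 37 °C, 5% CO2. Luminescence was read after ONE-glo addition, 10 min at room temperature.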
On the technique in general: In a reporter assay the amount or activity of a reporter protein is the signal.

In test [2] the target is T1, JAK2 JH2 WT (V536-D812) [W659A, W777A, F794H solubilizing mutations] (Homo sapiens, UniProt O60674, F794H/W659A/W777A).
T1 construct: **JAK2 JH2 WT (V536-D812) [W659A, W777A, F794H solubilizing mutations]; C-thrombin-avi-His6; thrombin cleavage site (C); His6 (C); purchased Biortus
The experiment in a line: Surface Plasmon Resonance (SPR) binding assay, JAK2 JH2 domain. The gist of the method:
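Kinetics came from 1:1 fits of single-cycle runs at 20 °C: four 3-fold dilutions from 5 uM for JH1 or 500 nM for JH2, 60 s association, and 300 s or 1200 s dissociation respectively. Protein was freshly captured per compound in the presence of 10 uM stabilizer compound, with running buffer of pH 7.5 HEPES/NaCl/glycerol/DTT plus 2% DMSO.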

Test [3] relates to TF1 JAK2 V617F STAT5 reporter. The experiment in a line: Cellular TF1 STAT5 assay (luciferase reporter), JAK2 V617F. As to conditions: read-out: Cell PD TF1 V617F STAT5 (IC50). The format is cell-based. In a few lines:
as §1

[4] abbreviates: Homo sapiens, TF-1, TF1 cells, JAK2 V617F.

T1 sequence (O60674 536-812 W659A/W777A/F794H): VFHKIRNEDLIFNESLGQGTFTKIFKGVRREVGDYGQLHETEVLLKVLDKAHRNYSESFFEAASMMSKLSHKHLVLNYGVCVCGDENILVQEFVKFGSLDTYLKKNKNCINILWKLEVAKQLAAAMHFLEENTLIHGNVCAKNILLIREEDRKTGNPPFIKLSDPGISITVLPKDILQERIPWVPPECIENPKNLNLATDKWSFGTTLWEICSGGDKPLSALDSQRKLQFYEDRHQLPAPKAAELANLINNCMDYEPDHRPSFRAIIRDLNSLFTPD

A word on the IC50: it is the midpoint of a concentration-inhibition curve. Broadly, the Kd is the concentration at which binding is half-saturated. Read a high Kd as weaker binding. For `CNC(=O)c1nnc(NC(=O)C2CC2)cc1Nc1cccc(-c2cnn(C3CN(Cc4cccc(S(C)(=O)=O)n4)C3)c2)c1OC` [Compound 304], the IC50 in test [1] (setting [4]) and in test [3] (setting [4]) was 50 to 500 nM each time. Besides, the Kd in test [2] lay in the range of 0.01 to 10 nM.

With `CNC(=O)c1nnc(NC(=O)C2CC2)cc1Nc1cccc(-c2ccc(C(=O)N(C)Cc3cccc(OC(F)F)c3)nc2)c1OC` [Compound 80], the IC50 in test [1] (TF1 JAK2 V617F) was in the range of 50 to 500 nM; in test [3] (TF1 JAK2 V617F), 500 to 5000 nM. Moreover, the Kd in test [2] (SPR, JAK2 JH2 domain) was in the range of 0.01 to 10 nM.

Regarding `CNC(=O)c1nnc(NC(=O)C2CC2)cc1Nc1cccc(-c2ccc(C(=O)N(C)Cc3ncc(COC4CC4)s3)nc2)c1OC` [Compound 362], the IC50 in test [1] (setting [4]) and in test [3] (setting [4]) was 500 to 5000 nM in each case. The compound also gave a Kd in test [2] of 0.01 to 10 nM.

For the compound `CNC(=O)c1nnc(NC(=O)C2CC2)cc1Nc1cccc(-c2cnn([C@H]3C[C@@H]([C@H](OC)c4ccccn4)C3)c2)c1OC` (single isomer, unassigned) [Compound 350], the IC50 in test [1] (setting [4]) and in test [3] (setting [4]) was 500 to 5000 nM each time. Besides, the Kd in test [2] was in the range of 10 to 50 nM.

For `CNC(=O)c1nnc(NC(=O)C2CC2)cc1Nc1cccc(-c2cnn(C3CN([C@H](C)c4cccc(C#N)n4)C3)c2)c1OC` (single isomer, unassigned) [Compound 283], the 50% inhibitory concentration (IC50) in test [1] (setting [4]) and in test [3] (setting [4]) was 500 to 5000 nM in each case. This compound gave a Kd in test [2] of 0.01 to 10 nM.

For the compound `CNCc1cnc(CN(C)C(=O)c2ccc(-c3cccc(Nc4cc(NC(=O)C5CC5)nnc4C(=O)NC)c3OC)cn2)s1` [Compound 282], the IC50 in test [1] (setting [4]) and in test [3] (setting [4]) was 500 to 5000 nM in each case. This compound gave a Kd in test [2] of 0.01 to 10 nM.

In the case of `CNC(=O)c1nnc(NC(=O)C2CC2)cc1Nc1cccc(-c2cnn(C3CN(Cc4nccc5cc[nH]c45)C3)c2)c1OC` [Compound 254], the IC50 in test [1] (setting [4]) and in test [3] (setting [4]) was 50 to 500 nM in each case. Moreover, the Kd in test [2] was in the range of 0.01 to 10 nM.

As for `CNC(=O)c1nnc(NC(=O)C2CC2)cc1Nc1cccc(-c2ccc(C(=O)N(C)Cc3cnsc3)nc2)c1OC` [Compound 195], the IC50 in test [1] (TF1 JAK2 V617F) and in test [3] (TF1 JAK2 V617F) was 500 to 5000 nM throughout. The compound further yielded a dissociation constant Kd in test [2] (SPR, JAK2 JH2 domain) of 0.01 to 10 nM.

Regarding `CNC(=O)c1nnc(NC(=O)C2CC2)cc1Nc1cccc(-c2ccc(C(=O)N(C)C[C@H]3Cc4ccccc4CO3)nc2)c1OC` (single isomer, unassigned) [Compound 139], the IC50 in test [1] (TF1 JAK2 V617F) was 500 to 5000 nM; in test [3] (TF1 JAK2 V617F) it was 5000 to 100000 nM. The Kd in test [2] (SPR, JAK2 JH2 domain) was in the range of 10 to 50 nM.

With `CNC(=O)c1nnc(NC(=O)C2CC2)cc1Nc1cccc(-c2cn(C3CN(Cc4cccc(C#N)n4)C3)nc2C(C)(C)O)c1OC` [Compound 339], the IC50 in test [1] (setting [4]) and in test [3] (setting [4]) was 5000 to 100000 nM in each case. The compound also yielded a Kd in test [2] of 50 to 500 nM.

Turning to `CNC(=O)c1nnc(NC(=O)C2CC2)cc1Nc1cccc(-c2cnc(C(=O)N(C)Cc3nn(C)cc3Br)nc2)c1OC` [Compound 56], the IC50 in test [1] (TF1 JAK2 V617F) and in test [3] (TF1 JAK2 V617F) was 50 to 500 nM each time. Besides, in test [2] (SPR, JAK2 JH2 domain), the Kd is 0.01 to 10 nM.

As to `CNC(=O)c1nnc(NC(=O)C2CC2)cc1Nc1cccc(-c2cnn([C@H]3CCN(Cc4cccc(C#N)n4)C3)c2)c1OC` [Compound 319], the IC50 in test [1] (setting [4]) and in test [3] (setting [4]) was 50 to 500 nM in each case. Also, the Kd in test [2] was 0.01 to 10 nM.

Turning to `CNC(=O)c1nnc(NC(=O)C2CC2)cc1Nc1cccc(-c2cnc(C3CN(Cc4cccc(C#N)n4)C3)nc2)c1OC` [Compound 305], the IC50 in test [1] (setting [4]) and in test [3] (setting [4]) was 500 to 5000 nM in each case. The same compound showed a Kd in test [2] of 0.01 to 10 nM.

On to `CNC(=O)c1nnc(NC(=O)C2CC2)cc1Nc1ccc(C)c(-c2cnc(C(=O)N(C)Cc3ncc(COC)s3)c(F)c2)c1OC` [Compound 314], for which the IC50 in test [1] (setting [4]) fell in the range of 500 to 5000 nM; in test [3] (setting [4]), 50 to 500 nM. This compound yielded a dissociation constant (Kd) in test [2] of 0.01 to 10 nM.

As to `CNC(=O)c1nnc(NC(=O)C2CC2)cc1Nc1cccc(-c2ccc(C(=O)N(C)Cc3cc(C#N)ccn3)c(C#N)c2)c1OC` [Compound 118], the IC50 in test [1] (TF1 JAK2 V617F) and in test [3] (TF1 JAK2 V617F) was 500 to 5000 nM each time. In test [2] (SPR, JAK2 JH2 domain), this compound registered a Kd of 0.01 to 10 nM.

`CNC(=O)c1nnc(NC(=O)C2CC2)cc1Nc1cccc(-c2ccc(C(=O)N(C)Cc3cncc(C#N)c3)nc2)c1OC` [Compound 188]: the IC50 in test [1] (TF1 JAK2 V617F) and in test [3] (TF1 JAK2 V617F) was 500 to 5000 nM in each case. Also, the Kd in test [2] (SPR, JAK2 JH2 domain) was in the range of 0.01 to 10 nM.

With `CNC(=O)c1nnc(NC(=O)C2CC2)cc1Nc1cccc(-c2ccc(C(=O)N(C)Cc3nccc(C#N)n3)nc2)c1OC` [Compound 261], the IC50 in test [1] (setting [4]) is 50 to 500 nM; in test [3] (setting [4]) it was 500 to 5000 nM. The dissociation constant (Kd) in test [2] lay within 0.01 to 10 nM.

For the compound `CNC(=O)c1nnc(NC(=O)C2CC2)cc1Nc1cccc(-c2cnn(C3CN(Cc4cc(C(F)F)cc(C#N)n4)C3)c2)c1OC` [Compound 344], the IC50 in test [1] (setting [4]) and in test [3] (setting [4]) was 50 to 500 nM in each case. Moreover, in test [2], the Kd lay within 0.01 to 10 nM.

For `CNC(=O)c1nnc(NC(=O)C2CC2)cc1Nc1cccc(-c2cnn(C3CN(Cc4cccn(C(F)F)c4=O)C3)c2)c1OC` [Compound 251], the IC50 in test [1] (setting [4]) and in test [3] (setting [4]) was 50 to 500 nM throughout. Moreover, the Kd in test [2] was in the range of 0.01 to 10 nM.

Consider `CNC(=O)c1nnc(NC(=O)C2CC2)cc1Nc1cccc(-c2cncc(C3CN(Cc4ccccn4)C3)c2)c1OC` [Compound 280], for which the IC50 in test [1] (setting [4]) and in test [3] (setting [4]) was 5000 to 100000 nM each time. Also, the Kd in test [2] was 10 to 50 nM.

As for `CNC(=O)c1nnc(NC(=O)C2CC2)cc1Nc1cccc(-c2cn(C3CN(Cc4ccccn4)C3)nc2C(F)F)c1OC` [Compound 165], the IC50 in test [1] (TF1 JAK2 V617F) and in test [3] (TF1 JAK2 V617F) was 500 to 5000 nM in each case. The compound further gave a Kd in test [2] (SPR, JAK2 JH2 domain) of 0.01 to 10 nM.

`CNC(=O)c1nnc(NC(=O)C2CC2)cc1Nc1cccc(-c2ccc(C(=O)N(C)Cc3cncs3)nc2)c1OC` [Compound 60]: the results for the IC50 in test [1] (TF1 JAK2 V617F) and in test [3] (TF1 JAK2 V617F) were 500 to 5000 nM and 5000 to 100000 nM, respectively. Besides, in test [2] (SPR, JAK2 JH2 domain), the Kd lay in the range of 10 to 50 nM.

For `CNC(=O)c1nnc(NC(=O)C2CC2)cc1Nc1cccc(-c2ccc(C3CN(Cc4ccn(C)n4)C3)nc2)c1OC` [Compound 263], the IC50 in test [1] (setting [4]) and in test [3] (setting [4]) was 5000 to 100000 nM in each case. Besides, in test [2], the Kd was in the range of 10 to 50 nM.

In the case of `CNC(=O)c1nnc(NC(=O)C2CC2)cc1Nc1cccc(-c2cnc(C(=O)N(C)Cc3cccn(C)c3=O)c(F)c2)c1OC` [Compound 29], the IC50 in test [1] (TF1 JAK2 V617F) and in test [3] (TF1 JAK2 V617F) was 50 to 500 nM in each case. In test [2] (SPR, JAK2 JH2 domain), this compound registered a Kd of 0.01 to 10 nM.

Consider `CNC(=O)c1nnc(NC(=O)C2CC2)cc1Nc1cccc(-c2ccc(C(=O)N(C)[C@H](C)c3cc(C#N)ccn3)nc2)c1OC` (single isomer, unassigned) [Compound 181], for which the IC50 in test [1] (TF1 JAK2 V617F) and in test [3] (TF1 JAK2 V617F) was 500 to 5000 nM in each case. In test [2] (SPR, JAK2 JH2 domain), this compound had a Kd of 0.01 to 10 nM.

On to `CNC(=O)c1nnc(NC(=O)C2CC2)cc1Nc1cccc(-c2cc(C3CN(Cc4cc(C#N)ccn4)C3)nn2C)c1OC` [Compound 177], for which the concentration for half-maximal inhibition (IC50) in test [1] (TF1 JAK2 V617F) and in test [3] (TF1 JAK2 V617F) was 5000 to 100000 nM each time. The Kd in test [2] (SPR, JAK2 JH2 domain) is 0.01 to 10 nM.

On to `CNC(=O)c1nnc(NC(=O)C2CC2)cc1Nc1cccc(-c2cnn(C3CN(Cc4cn(C)nc4C)C3)c2)c1OC` [Compound 213], for which the IC50 in test [1] (setting [4]) and in test [3] (setting [4]) was 500 to 5000 nM each time. In test [2], this compound displayed a Kd of 0.01 to 10 nM.

Regarding `[2H]C([2H])([2H])NC(=O)c1nnc(NC(=O)C2CC2)cc1Nc1cccc(-c2cnn(C3CN(Cc4ccccn4)C3)c2)c1OC` [Compound 105], the IC50 in test [1] (TF1 JAK2 V617F) and in test [3] (TF1 JAK2 V617F) was 50 to 500 nM each time. Moreover, the Kd in test [2] (SPR, JAK2 JH2 domain) was in the range of 0.01 to 10 nM.
